Measurements: paper PMC8522962 (Reproductive Toxicology (Elmsford, N.y.), 2021)
Entries after “also recorded” stand apart in the source; their conditions may differ. Blank lines part the entries; values can stand above or below the molecule they belong to.

How the values were obtained:
[1] = system: T/Bra::GFP mouse gastruloids; experiment: Mouse gastruloid assay, T/Bra::GFP reporter line; type: cell-based; conditions: for adverse effects on reporter gene expression (words): mouse system, up to the highest concentration levels
[2] = system: mouse gastruloids; experiment: Mouse gastruloid assay, both lines or line not specified; type: cell-based; conditions: for mouse Gastruloid LOAEL: lowest observable adverse effect level; for overall outcome in the mouse gastruloid model: summary statements
[3] = system: hiPSC-derived EBs; experiment: Human 3D in vitro model, hiPSC-derived embryoid bodies; type: cell-based; conditions: threshold concentration where 20 % of teratogenicity was detected by differential expression
[4] = system: rats; conditions: read-out: rat in vivo LOAEL Cmax; maximum plasma concentration at LOAEL; cited from earlier work
[5] = system: rabbits; conditions: cited from earlier work
[6] = system: differentiation of mouse embryonic stem cells (ES-D3) into beating cardiomyocytes; experiment: Mouse embryonic stem cell test; type: cell-based; conditions: for mEST ID50: half maximal inhibitory concentration of cardiomyocyte differentiation
[7] = EMA ICH S5 (R3) guidelines; cited from earlier work
[8] = system: RUES2-GLR human gastruloids; experiment: Human gastruloid assay, RUES2-GLR line; conditions: for Human Gastruloid LOAEL: lowest observable adverse effect level; for overall outcome in the human gastruloid model: summary statements; for adverse effects on reporter gene expression (words): up to the highest concentration levels
[9] = system: E14Tg2A mouse gastruloids; experiment: Mouse gastruloid assay, E14Tg2A line; type: cell-based
[10] = system: plasma protein; conditions: cited from earlier work; for free fractions of unbound compound: human therapeutic concentrations

Structure (SMILES): COc1ccccc1Oc1c(NS(=O)(=O)c2ccc(C(C)(C)C)cc2)nc(-c2ncccn2)nc1OCCO [Bosentan]
- morphology vs controls ([1]; 4 μM and 8 μM): larger and more elongated than controls
- GFP expression ([1]; cultured in the presence of bosentan (4-18 μM)): robust GFP expression that was localised to the pole of the elongations
- size and morphogenesis vs controls ([2]; 4–18 μM, mouse gastruloids): slightly larger than controls, but did not appear to be defective in morphogenesis
- hiPSC- derived EBs TC20 [3]: 13 µM
- Cmax [4]: 30 µM
- effects in rabbits in vivo [5]: no effects
- mEST prediction [6]: false negative
- mEST ID50 [6]: 68.2 µM
- Teratogenicity classification [7]: Positive
- germ layer representation and axial elongation ([8]; 4 μM): maintain representation of all three germ layers and axial elongation morphogenesis
- size vs DMSO ([8]; 4 μM): marginally smaller than DMSO-treated gastruloids
- SOX17 expression ([8]; 18 μM): lose expression of SOX17
- human gastruloids showing low levels of SOX17 expression, on average ([8]; 18 μM, 72 h, vehicle controls 88 %): 33%
- Human Gastruloid LOAEL ([8]; 72 h): 18 µM
- overall outcome in the human gastruloid model [8]: potentially teratogenic

Structure (SMILES): CC(C)Cc1ccc(C(C)C(=O)O)cc1 (centres unmarked) [Ibuprofen]
- GFP expression ([1]; all ibuprofen treatments tested (63-250 μM)): marked increase in GFP expression
- growth and morphology vs vehicle-only controls ([2]; 63−250 μM, 0.12 % DMSO control): no consistent effect on growth or morphology
- mouse Gastruloid LOAEL ([2]; 120 h): 63 µM
- mouse Gastruloid LOAEL ([2]; 120 h, listed as ibuprofen): 63 µM
- overall outcome in the mouse gastruloid model [2]: adverse effects on gene expression
- hiPSC- derived EBs TC20 [3]: 855 µM
- Cmax [4]: 1600 µM
- effects in rabbits in vivo [5]: no effects
- mEST prediction [6]: negative
- SOX2 expression vs vehicle-only controls ([8]; 63 μM): marginally elevated
- size and circularity ([8]; 63 μM and 250 μM): reduced size and increased circularity
- Human Gastruloid LOAEL ([8]; 72 h): 63 µM

- effect on size ([8]; 63 μM and 1 mM): minimal effects of increased size
Structure (SMILES): CC1(C)S[C@@H]2[C@H](NC(=O)Cc3ccccc3)C(=O)N2[C@H]1C(=O)O [Penicillin G]
- adverse effects on reporter gene expression (words) ([1]; listed as Penicillin): No observable adverse effects on reporter gene expression
- adverse effects on reporter gene expression (words) ([1]; listed as penicillin G): did not cause any adverse effects on reporter gene expression
- morphological changes vs control ([9]; 63 μM, 1 mM and 2 mM, water control): small morphological changes resulting in slightly larger, more elongated or less circular gastruloids
- adverse effects on reporter gene expression (words) ([8]; human system, listed as Penicillin): No observable adverse effects on reporter gene expression
- adverse effects on reporter gene expression (words) ([8]; human system, listed as penicillin G): did not cause any adverse effects on reporter gene expression

Structure (SMILES): O=C1NC(=O)C(c2ccccc2)(c2ccccc2)N1 [Phenytoin]
- size and circularity ([1]; 20 μM): significantly smaller and more circular
- T/Bra::GFP expression ([1]; > 5 μM): negatively correlated with increasing concentrations of phenytoin
- overall outcome in the mouse gastruloid model [2]: adverse effects on gene expression
- hiPSC- derived EBs TC20 [3]: < 8 µM
- Cmax [4]: 106 µM
- mEST ID50 [6]: 0.39 µM
- plasma protein binding [10]: 90%
- free fractions of unbound compound [10]: 3 to 9 µM
- Teratogenicity classification [7]: Positive
- size and morphology vs vehicle-only controls ([9]; 1−20 μM, 0.1 % DMSO control): not significantly different compared to the vehicle-only controls in terms of size and morphology
- area ([8]; 20 μM, One-Way ANOVA α = 0.05): significantly reduced area
- proportions and patterns of gene expression ([8]; 1−20 μM): maintained proportions and patterns of gene expression that were comparable to controls
- overall outcome in the human gastruloid model [8]: falls below the limit of detectable effect

Structure (SMILES): CC1=C(/C=C/C(C)=C/C=C/C(C)=C/C(=O)O)C(C)(C)CCC1 [Retinoic Acid, All-trans retinoic acid]
- T/Bra::GFP expression ([1]; all ATRA treatments (0.4-100 nM), 120 h): apparent loss of T/Bra::GFP expression
- effect on axial extension ([2]; 0.4 nM, 120 h, both lines): significant inhibition of axial extension
- effect on size and shape ([2]; 33 nM, 100 nM, 120 h, both lines): drastically reduced size, and gastruloids assumed a spherical shape without any axial elongation
- dosages likely to be cytotoxic or cytostatic in the mouse system ([2]; 120 h): > 0.4 nM
- mouse Gastruloid LOAEL ([2]; 120 h): 0.0004 µM
- overall outcome in the mouse gastruloid model [2]: similarly teratogenic; also recorded: adverse morphological effects
- Cmax [4]: 1 µM
- mEST ID50 [6]: 0.0037 µM
- mEST ID50 ([6]; listed as ATRA): 0.003 µM
- Teratogenicity classification [7]: Positive
- germ layer representation and axial elongation ([8]; 0.4 nM, 72 h): maintain an equivalent representation of the three germ layers and underwent partial axial elongation
- size and circularity vs controls ([8]; 0.4 nM, 72 h): significantly smaller and more circular than controls
- axial extension and SOX2 expression ([8]; 33 nM, 72 h): completely inhibited axial extension and promoted the over-expression of SOX2
- BRA expression ([8]; 33 nM, 72 h, three replicates): no detectable BRA expression
- human gastruloids expressing SOX17 at low levels, on average ([8]; 33 nM, 72 h, DMSO controls 88 %): 42%
- Human Gastruloid LOAEL ([8]; 72 h): 0.0004 µM
- overall outcome in the human gastruloid model [8]: similarly teratogenic

Structure (SMILES): O=C1CCC(N2C(=O)c3ccccc3C2=O)C(=O)N1 (centres unmarked) [Thalidomide]
- GFP expression ([1]; increasing concentrations (100 μM)): reduced GFP expression
- size and morphology ([2]; 0.4−100 μM, both lines): not significantly altered in either size or morphology
- overall outcome in the mouse gastruloid model [2]: adverse effects on gene expression
- hiPSC- derived EBs TC20 [3]: < 0.1 µM
- Cmax [4]: 19 µM
- mEST prediction [6]: false negative
- mEST inhibition of cardiomyocytes ([6]; concentrations up to 2 mM): did not show any inhibition of cardiomyocytes
- Teratogenicity classification [7]: Positive
- SOX2 expression ([8]; 0.4 μM and 100 μM): clearly increased SOX2 expression
- gastruloid size ([8]; 0.4 μM and 100 μM): significant decreases in gastruloid size
- Human Gastruloid LOAEL ([8]; 72 h): 0.4 µM
- overall outcome in the human gastruloid model [8]: potentially teratogenic

Structure (SMILES): CCCC(CCC)C(=O)O [Valproic Acid]
- GFP expression ([1]; 4 μM): maintained localised GFP expression
- size, elongation and GFP expression ([1]; concentrations higher than 4 μM): smaller gastruloids, impaired elongation and a loss of GFP expression
- tolerability ([2]; 4 μM, mouse gastruloids): fairly well tolerated
- toxicity judged from decrease in gastruloid size ([2]; 1 mM, mouse system): seem to induce toxicity
- effect on shape and size ([2]; concentrations higher than 333 μM, mouse gastruloids): clearly spherical mouse gastruloids
- mouse Gastruloid LOAEL ([2]; 120 h): 333 µM
- overall outcome in the mouse gastruloid model [2]: similarly teratogenic; also recorded: adverse morphological effects
- hiPSC- derived EBs TC20 [3]: 85 µM
- Cmax [4]: 1600 µM
- mEST ID50 [6]: 589 µM
- plasma protein binding [10]: ≥ 90%
- free fractions of unbound compound [10]: 0.3−0.5 mM
- Teratogenicity classification [7]: Positive
- effect on size ([8]; 4 μM, human gastruloids): decrease in size
- tolerability ([8]; 4 μM, human gastruloids): fairly well tolerated
- SOX2 and BRA reporter expression vs 0.2 % DMSO controls ([8]; 333 μM): very low SOX2 expression and elevated BRA expression
- axial elongation morphogenesis ([8]; 333 μM): failed to undergo axial elongation morphogenesis
- toxicity judged from decrease in gastruloid size ([8]; 1 mM, human system): seem to induce toxicity
- Human Gastruloid LOAEL ([8]; 72 h): 333 µM
- overall outcome in the human gastruloid model [8]: similarly teratogenic
